Test results taken from patent US10111890B2, “9-aminomethyl minocycline compounds and uses thereof” (Paratek Pharmaceuticals, Inc., priority 2016, dated 2018).

Assays:
ABSSSI = test: Earlier Phase 3 i.v.-to-oral omadacycline vs linezolid study in ABSSSI: clinical success; type: in vivo, human; conditions: i.v. with switch to oral
[1] = system: ABSSSI known or suspected to be due to Gram-positive pathogens; test: Phase 3 oral omadacycline vs oral linezolid in ABSSSI: Investigator's Assessment of Clinical Response at PTE; type: in vivo, human; conditions: for Overall Clinical Success at PTE, %: micro-mITT, % of N1; for Difference (95% CI) in Overall Clinical Success rate at PTE: omadacycline minus linezolid
[2] = Cellulitis/erysipelas, actual type, mITT
[3] = Cellulitis/erysipelas, as randomized, mITT
[4] = Major Abscess, actual type, mITT
[5] = Major Abscess, as randomized, mITT
[6] = Wound Infection, actual type, mITT
[7] = Wound Infection, as randomized, mITT

CN(C)c1cc(CNCC(C)(C)C)c(O)c2c1C[C@H]1C[C@H]3[C@H](N(C)C)C(O)=C(C(N)=O)C(=O)[C@@]3(O)C(O)=C1C2=O [Omadacycline, 9-[(2,2-dimethyl-propylamino)-methyl]-minocycline]
clinical success based on a reduction of lesion size (ABSSSI; 48-72 hours after the first dose, FDA primary analysis population (N=627)): 84.8%
non-inferiority to linezolid (ABSSSI; 7-14 days): non-inferior
Difference in Overall Clinical Success rate at PTE, omadacycline minus linezolid ([1]; CE-PTE): 2.3%
Overall clinical response at PTE: Clinical Success ([1]; Cellulitis/erysipelas, actual type of infection, investigator assessment, mITT): 76 (88.4) n (%)
Overall clinical response at PTE: Clinical Failure [1, 2]: 2 (2.3) n (%)
Overall clinical response at PTE: Clinical Failure or Indeterminate [1, 2]: 10 (11.6) n (%)
Overall clinical response at PTE: Indeterminate [1, 2]: 8 (9.3) n (%)
Overall clinical response at PTE: Clinical Failure [1, 3]: 2 (2.4) n (%)
Overall clinical response at PTE: Clinical Failure or Indeterminate [1, 3]: 10 (12.2) n (%)
Overall clinical response at PTE: Indeterminate [1, 3]: 8 (9.8) n (%)
Overall clinical response at PTE: Clinical Success ([1]; Cellulitis/erysipelas, type of infection as randomized, investigator assessment, mITT): 72 (87.8) n (%)
Overall clinical response at PTE: Clinical Success ([1]; Major Abscess, actual type of infection, investigator assessment, mITT): 54 (84.4) n (%)
Overall clinical response at PTE: Clinical Failure [1, 4]: 2 (3.1) n (%)
Overall clinical response at PTE: Clinical Failure or Indeterminate [1, 4]: 10 (15.6) n (%)
Overall clinical response at PTE: Indeterminate [1, 4]: 8 (12.5) n (%)
Overall clinical response at PTE: Clinical Failure [1, 5]: 2 (3.1) n (%)
Overall clinical response at PTE: Clinical Failure or Indeterminate [1, 5]: 10 (15.6) n (%)
Overall clinical response at PTE: Indeterminate [1, 5]: 8 (12.5) n (%)
Overall clinical response at PTE: Clinical Success ([1]; Major Abscess, type of infection as randomized, investigator assessment, mITT): 54 (84.4) n (%)
Overall clinical response at PTE: Clinical Success ([1]; Wound Infection, actual type of infection, investigator assessment, mITT): 173 (82.4) n (%)
Overall clinical response at PTE: Clinical Failure [1, 6]: 8 (3.8) n (%)
Overall clinical response at PTE: Clinical Failure or Indeterminate [1, 6]: 37 (17.6) n (%)
Overall clinical response at PTE: Indeterminate [1, 6]: 29 (13.8) n (%)
Overall clinical response at PTE: Clinical Failure [1, 7]: 8 (3.7) n (%)
Overall clinical response at PTE: Clinical Failure or Indeterminate [1, 7]: 37 (17.3) n (%)
Overall clinical response at PTE: Indeterminate [1, 7]: 29 (13.6) n (%)
Overall clinical response at PTE: Clinical Success ([1]; Wound Infection, type of infection as randomized, investigator assessment, mITT): 177 (82.7) n (%)
Overall Clinical Success at PTE, % ([1]; baseline pathogen Clostridium perfringens, investigator assessment): (80.0) %
Overall Clinical Success at PTE, % ([1]; baseline pathogen Enterobacter cloacae, investigator assessment): (80.0) %
Overall Clinical Success at PTE, % ([1]; baseline pathogen Enterococcus faecalis VSE, investigator assessment): (100.0) %
Overall Clinical Success at PTE, % ([1]; baseline pathogen Enterococcus faecalis, investigator assessment): (100.0) %
Overall Clinical Success at PTE, % ([1]; baseline pathogen Enterococcus faecium VSE, investigator assessment): (100.0) %
Overall Clinical Success at PTE, % ([1]; baseline pathogen Enterococcus faecium, investigator assessment): (100.0) %
Overall Clinical Success at PTE, % ([1]; baseline pathogen Escherichia coli, investigator assessment): (100.0) %
Overall Clinical Success at PTE, % ([1]; baseline pathogen Finegoldia magna, investigator assessment): (100.0) %
Overall Clinical Success at PTE, % ([1]; baseline pathogen Klebsiella pneumoniae, investigator assessment): (80.0) %
Overall Clinical Success at PTE, % ([1]; baseline pathogen MRSA, investigator assessment): (85.6) %
Overall Clinical Success at PTE, % ([1]; baseline pathogen MSSA, investigator assessment): (80.8) %
Overall Clinical Success at PTE, % ([1]; baseline pathogen Prevotella denticola, investigator assessment): (60.0) %
Overall Clinical Success at PTE, % ([1]; baseline pathogen Prevotella melaninogenica, investigator assessment): (100.0) %
Overall Clinical Success at PTE, % ([1]; baseline pathogen Staphylococcus aureus, investigator assessment): (82.7) %
Overall Clinical Success at PTE, % ([1]; baseline pathogen Staphylococcus lugdunensis, investigator assessment): (80.0) %
Overall Clinical Success at PTE, % ([1]; baseline pathogen Streptococcus agalactiae, investigator assessment): (50.0) %
Overall Clinical Success at PTE, % ([1]; baseline pathogen Streptococcus anginosus group, investigator assessment): (86.0) %
Overall Clinical Success at PTE, % ([1]; baseline pathogen Streptococcus anginosus, investigator assessment): (88.9) %
Overall Clinical Success at PTE, % ([1]; baseline pathogen Streptococcus constellatus, investigator assessment): (88.9) %
Overall Clinical Success at PTE, % ([1]; baseline pathogen Streptococcus intermedius, investigator assessment): (78.3) %
Overall Clinical Success at PTE, % ([1]; baseline pathogen Streptococcus mitis, investigator assessment): (100.0) %
Overall Clinical Success at PTE, % ([1]; baseline pathogen Streptococcus pyogenes, investigator assessment): (69.0) %
Overall Clinical Success at PTE, % ([1]; baseline pathogen Streptococcus viridans group, investigator assessment): (100.0) %
Overall clinical response at PTE: Clinical Failure ([1]; investigator assessment, CE-PTE): 6 (2.1) n (%)
Overall clinical response at PTE: Clinical Success ([1]; investigator assessment, CE-PTE (N = 284 / N = 292)): 278 (97.9) n (%)
Overall clinical response at PTE: Clinical Failure ([1]; investigator assessment, mITT): 12 (3.3) n (%)
Overall clinical response at PTE: Clinical Failure or Indeterminate ([1]; investigator assessment, mITT): 57 (15.8) n (%)
Overall clinical response at PTE: Indeterminate ([1]; investigator assessment, mITT): 45 (12.5) n (%)
Overall clinical response at PTE: Clinical Success ([1]; investigator assessment, mITT (N = 360 per arm)): 303 (84.2) n (%)
Difference in Overall Clinical Success rate at PTE, omadacycline minus linezolid ([1]; mITT): 3.3%
Difference (95% CI) in Overall Clinical Success rate at PTE [1, 2]: −4.5 (−14.0, 4.7)
Difference (95% CI) in Overall Clinical Success rate at PTE [1, 3]: −5.1 (−14.9, 4.3)
Difference (95% CI) in Overall Clinical Success rate at PTE [1, 4]: 5.3 (−8.4, 19.2)
Difference (95% CI) in Overall Clinical Success rate at PTE [1, 5]: 5.3 (−8.4, 19.2)
Difference (95% CI) in Overall Clinical Success rate at PTE [1, 6]: 5.7 (−2.0, 13.4)
Difference (95% CI) in Overall Clinical Success rate at PTE [1, 7]: 6.1 (−1.6, 13.7)
